Experimental data from patent publication US8961927B2, “Agents for magnetic imaging method” (Bracco Imaging S.p.A., priority 2002, dated 2015).

Columns and labels:
Assay type in all cases: cell-based
[1] = test system: human hepatoma cells HTC; test: Differential uptake in rat hepatocytes and human hepatoma cells HTC, time course; settings: substrate 1.3 mM, 37° C. in EBSS
Protocol: This experiment has been carried out as follows:
Rat hepatocytes were cultured in M199 medium supplemented with 2 mg/ml bovine serum albumin (BSA), 3.6 mg/ml Hepes, 100 U/ml penicillin, 100 U/μg streptomycin, and 10 nmol/insulin; HTC cells were cultured in RPMI 1640 medium supplemented with 10% foetal bovine serum, 100 U/ml penicillin and 100 U/μg streptomycin.
The uptake experiments were performed in 5 ml EBSS, Earl's Balanced Salt Solution, (CaCl2 0.266 g/l; KCl 0.4 g/l; NaCl 6.8 g/l; glucose 1 g/l; MgSO4 0.204 g/l; NaH2PO4 0.144 g/l; NaHCO3 2.2 g/l).
[…] The substrate concentration was for both cell lines 1.3 mM.

[2] = test system: panel of cancer cell lines; test: Uptake in a panel of cancer cell lines compared with healthy hepatocytes, compound of Example 3; settings: substrate 5.1 mM; after 2 hours; FIG. 3
Protocol: The substrate concentration was 5.1 mM and the uptake was measured after 2 hours from the administration of the test compound.

[3] = test system: human hepatoma cells HepG2; test: Differential uptake in hepatocytes and hepatoma cell lines HepG2, EBSS without glucose, compound of Example 3; settings: substrate 5.1 mM, time course, FIG. 2
Protocol: The cells were cultured as in Example 12 above. The uptake experiments were performed in 5 ml EBSS without glucose to avoid competition between this compound and the test compound.
The substrate concentration was 5.1 mM and a time course analysis was done.

Row | uptake by the human hepatoma cells HTC relative to the one in hepatocytes ([1]; after 0.5 hour) | uptake by the human hepatoma cells HTC relative to the one in hepatocytes ([1]; after six hours) | uptake by the human hepatoma cells HTC relative to the one in hepatocytes ([1]; at 2 hours) | uptake of Gd in cancer cell lines compared with healthy hepatocytes [2] | uptake in human hepatoma cells HepG2 compared with hepatocyte [3] | Substance
1 | ⅓ | more than 4 times | more than 3 times |  |  | Gadolinium Complex of [4-(1,6,10-triazaundecan)-phenyl-aminocarbonylmethyl]-1,4,7,10-tetraazacyclododecan-4,7,10-triacetic acid [Example 11]
2 |  |  |  | increased in all the cancer cell lines | higher uptake | Gadolinium Complex of 3,6,9-triaza-3,6,9-tricarboxymethylundecanoic acid bis-glucopyranosylamide [Example 3]
